Measurements taken from ChEMBL document CHEMBL3616373, “Identification of N-sulfonyl-tetrahydroquinolines as RORc inverse agonists” (Bioorg Med Chem Lett, 2015).
Active and inactive are the calls of the source. The rule behind the calls is not given here.

Tests used:
[1] = target: T1, Oxysterols receptor LXR-beta (Homo sapiens, UniProt P55055); test: Antagonist activity at GAL4-fused human LXRbeta expressed in HEK293 cells assessed as inhibition of T0901317-stimulated transcriptional activity after 20 hrs by dual-glo luciferase reporter gene assay; format: cell-based
T1 sequence (P55055 whole entry): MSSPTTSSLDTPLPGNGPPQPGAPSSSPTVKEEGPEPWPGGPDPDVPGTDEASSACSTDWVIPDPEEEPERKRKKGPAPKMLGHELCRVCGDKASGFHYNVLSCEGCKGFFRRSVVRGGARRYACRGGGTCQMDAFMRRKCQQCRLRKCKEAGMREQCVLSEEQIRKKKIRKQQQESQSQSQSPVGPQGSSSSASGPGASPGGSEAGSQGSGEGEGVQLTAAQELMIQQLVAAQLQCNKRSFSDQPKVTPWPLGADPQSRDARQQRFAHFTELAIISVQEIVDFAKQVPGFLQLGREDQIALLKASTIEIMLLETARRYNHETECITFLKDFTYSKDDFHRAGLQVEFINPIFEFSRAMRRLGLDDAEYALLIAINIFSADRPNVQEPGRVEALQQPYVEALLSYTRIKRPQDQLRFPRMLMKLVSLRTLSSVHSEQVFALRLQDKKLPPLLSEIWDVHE

Bile acid receptor = target: T2, Bile acid receptor (Homo sapiens, UniProt Q96RI1); test: Antagonist activity at GAL4-fused human FXR expressed in HEK293 cells assessed as inhibition of T0901317-stimulated transcriptional activity after 20 hrs by dual-glo luciferase reporter gene assay; format: cell-based
T2 sequence (Q96RI1 whole entry): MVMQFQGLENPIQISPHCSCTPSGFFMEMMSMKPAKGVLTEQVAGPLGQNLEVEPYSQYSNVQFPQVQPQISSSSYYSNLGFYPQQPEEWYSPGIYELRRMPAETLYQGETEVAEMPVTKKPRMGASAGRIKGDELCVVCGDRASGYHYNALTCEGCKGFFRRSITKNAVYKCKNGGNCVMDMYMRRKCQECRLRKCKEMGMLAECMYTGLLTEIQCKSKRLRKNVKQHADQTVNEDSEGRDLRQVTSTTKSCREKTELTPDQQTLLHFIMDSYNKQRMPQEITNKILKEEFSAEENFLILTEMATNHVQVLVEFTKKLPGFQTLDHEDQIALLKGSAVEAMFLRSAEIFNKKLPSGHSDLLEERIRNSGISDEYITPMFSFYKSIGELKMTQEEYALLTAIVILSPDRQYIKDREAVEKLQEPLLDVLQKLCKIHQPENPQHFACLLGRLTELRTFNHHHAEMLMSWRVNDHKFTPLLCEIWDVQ

[2] = target: T3, Nuclear receptor subfamily 1 group I member 2 (Homo sapiens, UniProt O75469); test: Antagonist activity at GAL4-fused human PXR expressed in HEK293 cells assessed as inhibition of T0901317-stimulated transcriptional activity after 20 hrs by dual-glo luciferase reporter gene assay; format: cell-based
T3 sequence (O75469 whole entry): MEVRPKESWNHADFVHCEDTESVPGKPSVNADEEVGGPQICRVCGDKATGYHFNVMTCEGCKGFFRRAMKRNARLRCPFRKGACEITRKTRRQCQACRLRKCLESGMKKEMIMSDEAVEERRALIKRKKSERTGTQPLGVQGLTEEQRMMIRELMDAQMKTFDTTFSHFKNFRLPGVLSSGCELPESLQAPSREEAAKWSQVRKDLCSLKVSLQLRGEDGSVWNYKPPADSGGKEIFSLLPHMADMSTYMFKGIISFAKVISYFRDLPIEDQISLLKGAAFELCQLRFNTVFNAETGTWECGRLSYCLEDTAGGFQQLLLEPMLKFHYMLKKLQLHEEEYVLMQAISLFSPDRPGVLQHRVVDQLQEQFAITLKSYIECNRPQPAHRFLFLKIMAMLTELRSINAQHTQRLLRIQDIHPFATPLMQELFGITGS

[3] = target: T4, Oxysterols receptor LXR-alpha (Homo sapiens) (UniProt Q13133); test: Agonist activity at GAL4-fused human LXRalpha expressed in HEK293 cells assessed as activation of basal transcriptional activity up to 10 uM after 20 hrs by dual-glo luciferase reporter gene assay; format: cell-based
T4 sequence (whole entry): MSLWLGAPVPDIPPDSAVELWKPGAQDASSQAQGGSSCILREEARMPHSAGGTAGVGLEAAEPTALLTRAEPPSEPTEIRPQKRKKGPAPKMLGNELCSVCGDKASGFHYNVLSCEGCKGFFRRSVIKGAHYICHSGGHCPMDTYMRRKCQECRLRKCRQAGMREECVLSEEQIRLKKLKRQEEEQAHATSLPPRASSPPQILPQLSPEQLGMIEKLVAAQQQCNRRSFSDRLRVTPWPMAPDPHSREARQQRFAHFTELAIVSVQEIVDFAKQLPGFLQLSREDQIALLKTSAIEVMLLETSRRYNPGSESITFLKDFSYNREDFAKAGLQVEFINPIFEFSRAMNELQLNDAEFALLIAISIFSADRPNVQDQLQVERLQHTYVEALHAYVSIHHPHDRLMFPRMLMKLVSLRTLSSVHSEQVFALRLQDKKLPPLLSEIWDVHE

[4] = target: T5, Bile acid receptor (Homo sapiens) (UniProt Q96RI1); test: Agonist activity at GAL4-fused human FXR expressed in HEK293 cells assessed as activation of basal transcriptional activity up to 10 uM after 20 hrs by dual-glo luciferase reporter gene assay; format: cell-based
T5 sequence (whole entry): T2 sequence (Q96RI1 whole entry)

[5] = target: T3, Nuclear receptor subfamily 1 group I member 2; test: Agonist activity at GAL4-fused human PXR expressed in HEK293 cells assessed as activation of basal transcriptional activity up to 10 uM after 20 hrs by dual-glo luciferase reporter gene assay; format: cell-based; conditions: hek293, 20 h
[6] = Plasma protein binding in human at 5 uM after 4 hrs by equilibrium dialysis method; format: ADME, cell-free; conditions: read-out: PPB
[7] = Apparent permeability across apical to basolateral side in MDCK cells at 100 uM after 60 mins by HPLC analysis; format: ADME, cell-based, Canis lupus familiaris; conditions: dog
[8] = Apparent permeability across basolateral to apical side in MDCK cells at 100 uM after 60 mins by HPLC analysis; format: ADME, cell-based, Canis lupus familiaris; conditions: dog
[9] = target: T6, Oxysterols receptor LXR-alpha (Homo sapiens, UniProt Q13133); test: Antagonist activity at GAL4-fused human LXRalpha expressed in HEK293 cells assessed as inhibition of T0901317-stimulated transcriptional activity after 20 hrs by dual-glo luciferase reporter gene assay; format: cell-based
T6 sequence (Q13133 whole entry): T4 sequence (whole entry)

| EC50 [1] | EC50 (Bile acid receptor) | EC50 [2] | Activity [3] | Activity [4] | Activity [5] | fraction unbound at 4 h, 5 µM [6] | Papp A→B at 1 h, 100 µM [7] | Papp B→A at 1 h, 100 µM [8] | EC50 [9] | SMILES |
| --- | --- | --- | --- | --- | --- | --- | --- | --- | --- | --- |
| 2.6 µM | 5.3 µM | 0.82 µM | inactive | inactive | Not Active | < 0.01 | 12 ×10⁻⁶ cm/s | 12 ×10⁻⁶ cm/s |  | O=C(Nc1ccc2c(c1)N(S(=O)(=O)c1ccc(F)cc1)CCC2)c1c(F)cccc1Cl |
| 3.8 µM | 5.9 µM | 0.94 µM | inactive | inactive | Not Active | < 0.01 | 12 ×10⁻⁶ cm/s | 15 ×10⁻⁶ cm/s | 2.6 µM | O=C(Nc1ccc2c(c1)N(S(=O)(=O)c1ccc(F)cc1)CCC2)c1ccccc1Cl |
| 3.2 µM | 7.6 µM | 1.1 µM | inactive | inactive | Not Active | < 0.01 | 22 ×10⁻⁶ cm/s | 14 ×10⁻⁶ cm/s | 4.1 µM | O=C(Nc1ccc2c(c1)N(S(=O)(=O)c1ccc(F)cc1)CCC2)c1c(F)cccc1F |
| 5.7 µM | 4.2 µM | 4.8 µM | inactive | inactive | Not Active | < 0.01 | 16 ×10⁻⁶ cm/s | 11 ×10⁻⁶ cm/s | 4.2 µM | O=C(Nc1ccc2c(c1)N(S(=O)(=O)c1ccc(F)cc1)CC2)c1c(F)cccc1F |
